Data from patent publication US20250326732A1 (Pretzel Therapeutics, Inc., priority 2021, published 2025).

target: POLRMT (Homo sapiens (Human), UniProt O00411); experiment: homogeneous TR-FRET assay of mitochondrial transcription (inhibition of POLRMT); format: biochemical; conditions: 7.5 nM POLRMT, 15 nM TFB2M, 30 nM TFAM, 0.5 nM DNA template, 500 μM NTPs, 37° C. for 60 minutes
Protocol: The ability of some compounds of the present invention to inhibit POLRMT were determined in a homogeneous TR-FRET Assay using high-throughput screening in a 384-well plate format. […] Detection of the product is facilitated by hybridization of two DNA-oligonucleotide probes to specific and adjacent sequences within the RNA product sequence. Upon annealing of the probes, two fluorophores are coupled directly to an acceptor nucleotide probe (ATTO647, 5′), or introduced via a coupled streptavidin with a biotinylated donor nucleotide probe (Europium cryptate) that is brought into sufficient proximity to serve as a fluorescence-donor-acceptor pair. Thus, a FRET signal at 665 nm is generated upon excitation at 340 nm.
The DNA template is restriction linearized proximal to the promotor 3′-end (pUC-LSP). […] No nucleotide triphosphate mix is added to negative control samples. Microplates with compounds to be tested in the assay are prepared from 10 mM compound stocks in 100% DMSO, equal amounts of DMSO without any compound are added to positive control and negative control samples.
During the incubation, a mix of the detection reagents is prepared in a buffer such that the enzymatic reaction is terminated due to chelating of Mg-ions and increased ionic strength, containing 50 mM Tris-HCl (pH 7.5), 700 mM NaCl, 20 mM EDTA, and 0.01% (w/v) Tween-20. Europium-streptavidin is pre-incubated with a 200-fold molar excess of a random sequence oligonucleotide to block unspecific binding of oligo, for two hours at ambient temperature in the dark. Afterwards, the blocked Europium-streptavidin is kept on ice until use.
At the end of the enzymatic reaction time, 5 μL detection oligo mix in the detection buffer is added, and assay plates are mixed and kept at ambient temperature for one hour, protected from light. The concentration of the Acceptor nucleotide oligo (e.g., ATTO647N-5′-[…]-3′) and Donor nucleotide oligo (e.g., bio-5′-[…](-bio)[…]-bio-3′) in each assay well is 1 nM, and 3 nM, respectively.
After incubation with oligo mix, 5 μL of pre-blocked Europium-streptavidin reagent is dispensed to each assay well, assay plates are again mixed and kept at ambient temperature for one hour, protected from light.
The generated signal is measured with BMG Pherastar microtiter plate reader with a TRF light unit, using excitation at 340 nm, an integration time of 200 μs, and a delay time of 100 μs, before detection at 620 nm and 665 nm. The ratio of donor- and acceptor-fluorescence is used as a measure of the generated transcript product (i.e. enzymatic activity).

POLRMT, sequence (O00411 42-1230): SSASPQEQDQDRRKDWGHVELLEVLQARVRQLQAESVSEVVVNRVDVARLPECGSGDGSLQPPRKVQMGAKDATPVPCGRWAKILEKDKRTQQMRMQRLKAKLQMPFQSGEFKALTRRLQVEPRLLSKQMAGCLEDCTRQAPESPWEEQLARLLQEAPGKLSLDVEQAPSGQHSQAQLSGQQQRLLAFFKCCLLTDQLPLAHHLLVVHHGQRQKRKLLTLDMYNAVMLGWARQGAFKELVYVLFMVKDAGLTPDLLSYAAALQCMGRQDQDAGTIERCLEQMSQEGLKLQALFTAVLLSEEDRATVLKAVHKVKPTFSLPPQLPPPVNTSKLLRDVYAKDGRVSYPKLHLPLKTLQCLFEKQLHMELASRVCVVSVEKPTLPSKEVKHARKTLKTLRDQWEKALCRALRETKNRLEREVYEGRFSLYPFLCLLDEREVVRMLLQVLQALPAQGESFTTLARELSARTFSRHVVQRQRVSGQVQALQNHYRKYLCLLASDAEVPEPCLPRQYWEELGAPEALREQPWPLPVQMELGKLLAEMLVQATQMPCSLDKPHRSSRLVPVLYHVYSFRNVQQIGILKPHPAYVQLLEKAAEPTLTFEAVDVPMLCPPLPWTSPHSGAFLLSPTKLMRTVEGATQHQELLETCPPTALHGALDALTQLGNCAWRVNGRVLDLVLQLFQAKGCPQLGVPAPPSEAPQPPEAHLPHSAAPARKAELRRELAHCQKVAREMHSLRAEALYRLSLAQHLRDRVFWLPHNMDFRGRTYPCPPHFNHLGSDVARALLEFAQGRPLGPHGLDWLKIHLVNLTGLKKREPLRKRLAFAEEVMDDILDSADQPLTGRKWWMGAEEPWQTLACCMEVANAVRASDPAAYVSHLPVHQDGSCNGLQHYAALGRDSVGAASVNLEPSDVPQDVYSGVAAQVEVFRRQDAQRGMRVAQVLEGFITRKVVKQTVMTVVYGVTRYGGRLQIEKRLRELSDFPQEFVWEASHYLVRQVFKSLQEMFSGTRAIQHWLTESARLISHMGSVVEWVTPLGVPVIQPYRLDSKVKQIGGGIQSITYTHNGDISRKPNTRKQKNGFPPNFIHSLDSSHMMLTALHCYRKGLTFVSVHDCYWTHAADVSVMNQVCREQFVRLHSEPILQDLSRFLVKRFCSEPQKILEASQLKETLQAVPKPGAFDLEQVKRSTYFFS

Going from CCOC(C)c1ccc2c(-c3ccc(F)cc3Cl)cc(=O)oc2c1 (single isomer, unassigned) [Example 42, 4-(2-chloro-4-fluorophenyl)-7-(1-ethoxyethyl)-2H-chromen-2-one] to C[C@H](Cc1ccc2c(-c3ccc(F)cc3Cl)cc(=O)oc2c1)C(=O)N(C)C [Example 21, (R)-3-(4-(2-chloro-4-fluorophenyl)-2-oxo-2H-chromen-7-yl)-N,N,2-trimethylpropanamide], the IC50 rises from 6000 nM to 49000 nM (8.2-fold).

Cc1ccccc1-c1cc(=O)oc2cc(CC(C)C(=O)N3CCC[C@H](C#N)C3)ccc12 (single isomer, unassigned) [Example 84] and CCCNC(=O)c1ccc2c(-c3ccc(F)cc3Cl)cc(=O)oc2c1 [Example 22, 4-(2-chloro-4-fluorophenyl)-2-oxo-N-propyl-2H-chromene-7-carboxamide] are within 1.5-fold of each other in IC50: 32000 nM for the first, 25000 nM for the second.

Compared with Cc1cc(O)c2c(-c3ccc(F)cc3)cc(=O)oc2c1 [Example 12, 4-(4-fluorophenyl)-5-hydroxy-7-methyl-2H-chromen-2-one], Cc1ccccc1-c1cc(=O)oc2cc(C(C)N)ccc12 (stereo not drawn) [Example 91, 7-(1-aminoethyl)-4-(o-tolyl)-2H-chromen-2-one] is lower in IC50: greater than 100000 nM for the first, 20000 nM for the second. The second is the more potent here.

Compared with Cc1ccccc1-c1cc(=O)oc2cc(CC(C)C(=O)O)ccc12 (stereo not drawn) [Example 52, 2-methyl-3-[4-(o-tolyl)-2-oxo-chromen-7-yl]propanoic acid], Cc1ccccc1-c1cc(=O)oc2cc(C(=O)N3CCCCC3)ccc12 [Example 37, 7-(piperidine-1-carbonyl)-4-(o-tolyl)-2H-chromen-2-one] is 5-fold higher in IC50: 200 nM for the first, 1000 nM for the second. The first is the more potent here.

First: Cc1ccccc1-c1cc(=O)oc2cc(CN(C)C(=O)C3CCC(C(=O)O)CC3)ccc12 (stereo not drawn) [Example 229, 4-(methyl((2-oxo-4-(o-tolyl)-2H-chromen-7-yl)methyl)carbamoyl)cyclohexane-1-carboxylic acid]
Second: CC[C@@H](Nc1ccc2c(-c3ccccc3C)cc(=O)oc2c1)C(N)=O [Example 211, (R)-2-((2-oxo-4-(o-tolyl)-2H-chromen-7-yl)amino)butanamide]
The IC50 of the first is 10-fold lower: 100 nM for the first, 1000 nM for the second.

Going from CNC(=O)[C@H]1CCCN(C(=O)C(C)Cc2ccc3c(-c4ccccc4C)cc(=O)oc3c2)C1 (single isomer, unassigned) [Example 92] to COC[C@H](Nc1ccc2c(-c3ccccc3C)cc(=O)oc2c1)C(=O)O [Example 102, O-methyl-N-(2-oxo-4-(o-tolyl)-2H-chromen-7-yl) serine], the IC50 rises from 200 nM to 3000 nM (15-fold). The first is the more potent here.

Going from Cc1ccccc1-c1cc(=O)oc2cc(C(C)CC(=O)N3CCC[C@H](C(=O)O)C3)ccc12 (single isomer, unassigned) [Example 82] to Cc1ccccc1-c1cc(=O)oc2cc(C(=O)N3CC(CO)C3)ccc12 [Example 118, 7-(3-(hydroxymethyl)azetidine-1-carbonyl)-4-(o-tolyl)-2H-chromen-2-one], the IC50 rises from 5000 nM to 15000 nM (3-fold). The first is the more potent here.

First: Cc1ccccc1-c1cc(=O)oc2cc(CN(C)C(=O)C3CCC(C(=O)O)CC3)ccc12 [Example 156, (1R,4R)-4-(methyl((2-oxo-4-(o-tolyl)-2H-chromen-7-yl)methyl)carbamoyl)cyclohexane-1-carboxylic acid]
Second: Cc1ccccc1-c1cc(=O)oc2cc(CN(C)C(=O)N3CCC(C(=O)O)CC3)ccc12 [Example 147, 1-(methyl((2-oxo-4-(o-tolyl)-2H-chromen-7-yl)methyl)carbamoyl)piperidine-4-carboxylic acid]
The IC50 of the first is 1.5-fold lower: 200 nM for the first, 300 nM for the second.

COCC1CN(C(=O)c2ccc3c(-c4ccccc4C)cc(=O)oc3c2)C1 [Example 115, 7-(3-(methoxymethyl)azetidine-1-carbonyl)-4-(o-tolyl)-2H-chromen-2-one] and COC[C@@H](C(=O)N1CCC[C@H](C(=O)O)C1)N(C)c1ccc2c(-c3ccccc3C)cc(=O)oc2c1 (single isomer, unassigned) [Example 120] are within 1.5-fold of each other in IC50: 18000 nM for the first, 21000 nM for the second.

CC[C@@H](C(=O)O)N(C)c1ccc2c(-c3ccccc3C)cc(=O)oc2c1 [Example 180, (S)-2-(methyl(2-oxo-4-(o-tolyl)-2H-chromen-7-yl)amino)butanoic acid] and Cc1ccccc1-c1cc(=O)oc2cc(NCC(C)(C)C(=O)O)ccc12 [Example 127, 2,2-dimethyl-3-((2-oxo-4-(o-tolyl)-2H-chromen-7-yl)amino)propanoic acid] are the same in IC50: 200 nM for the first, 200 nM for the second.

Compared with Cc1ccccc1-c1cc(=O)oc2cc(NC(C)(C)C(N)=O)ccc12 [Example 210, 2-methyl-2-((2-oxo-4-(o-tolyl)-2H-chromen-7-yl)amino)propanamide], Cc1ccccc1-c1cc(=O)oc2cc(CC(C)C(=O)N3CCC[C@H](C(N)=O)C3)ccc12 (single isomer, unassigned) [Example 89] is 30-fold lower in IC50: 3000 nM for the first, 100 nM for the second. The second is the more potent here.

First: CC(=O)N(C)c1ccc2c(-c3ccccc3C)cc(=O)oc2c1 [Example 44, N-methyl-N-(2-oxo-4-(o-tolyl)-2H-chromen-7-yl)acetamide]
Second: CCN(C)C(=O)c1ccc2c(-c3ccc(F)cc3Cl)cc(=O)oc2c1 [Example 23, 4-(2-chloro-4-fluorophenyl)-N-ethyl-N-methyl-2-oxo-2H-chromene-7-carboxamide]
The IC50 of the first is 1.6-fold lower: 12000 nM for the first, 19000 nM for the second. The first is the more potent here.

First: Cc1ccccc1-c1cc(=O)oc2cc(CN(C)C(=O)C3CCC(C(=O)O)CC3)ccc12 [Example 158, (1S,4S)-4-(methyl((2-oxo-4-(o-tolyl)-2H-chromen-7-yl)methyl)carbamoyl)cyclohexane-1-carboxylic acid]
Second: CC(=O)NC1CCCN(C(=O)c2ccc3c(-c4ccccc4C)cc(=O)oc3c2)C1 (single isomer, unassigned) [Example 176, N-(1-(2-oxo-4-(o-tolyl)-2H-chromene-7-carbonyl)piperidin-3-yl)acetamide]
The IC50 of the first is 94-fold lower: 800 nM for the first, 75000 nM for the second.

First: Cc1ccccc1-c1cc(=O)oc2cc(N(C)CC(C)(C)C(=O)O)ccc12 [Example 128, 2,2-dimethyl-3-(methyl(2-oxo-4-(o-tolyl)-2H-chromen-7-yl)amino)propanoic acid]
Second: Cc1ccccc1-c1cc(=O)oc2cc(N[C@@H](CC(C)C)C(=O)OC(C)(C)C)ccc12 [Example 60, tert-butyl (2-oxo-4-(o-tolyl)-2H-chromen-7-yl)-L-leucinate]
The IC50 of the first is 270-fold lower: 30 nM for the first, 8000 nM for the second. The first is the more potent here.

Going from Cc1ccccc1-c1cc(=O)oc2cc(CN(C)C(=O)N3CCC[C@H](C(=O)O)C3)ccc12 [Example 146, (S)-1-(methyl((2-oxo-4-(o-tolyl)-2H-chromen-7-yl)methyl)carbamoyl)piperidine-3-carboxylic acid] to “3-methoxy-2-((2-oxo-4-phenyl-2H-chromen-7-yl)amino)propanamide [Example 198]”, the IC50 rises from 300 nM to 2000 nM (6.7-fold). The first is the more potent here.

Compared with Cc1ccccc1-c1cc(=O)oc2cc(N(C)CC(=O)NCCN(C)C)ccc12 [Example 221, N-(2-(dimethylamino)ethyl)-2-(methyl(2-oxo-4-(o-tolyl)-2H-chromen-7-yl)amino)acetamide], Cc1ccccc1-c1cc(=O)oc2cc(N(C)C(C)C(N)=O)ccc12 (stereo not drawn) [Example 195, 2-(methyl(2-oxo-4-(o-tolyl)-2H-chromen-7-yl)amino)propanamide] is 40-fold lower in IC50: 2000 nM for the first, 50 nM for the second.

Compared with Cc1ccccc1-c1cc(=O)oc2cc(N[C@H](C)C(=O)N3CCC[C@H](C(=O)O)C3)ccc12 [Example 80, (S)-1-((2-oxo-4-(o-tolyl)-2H-chromen-7-yl)-D-alanyl)piperidine-3-carboxylic acid], Cc1ccccc1-c1cc(=O)oc2cc(N(C)CC(C)C(=O)O)ccc12 (single isomer, unassigned) [Example 154-2] is 5-fold higher in IC50: 100 nM for the first, 500 nM for the second. The first is the more potent here.

First: C[C@@H](Nc1ccc2c(-c3ccc(F)cc3Cl)cc(=O)oc2c1)C(=O)N(C)C [Example 28, (R)-2-((4-(2-chloro-4-fluorophenyl)-2-oxo-2H-chromen-7-yl)amino)-N,N-dimethylpropanamide]
Second: Cc1ccccc1-c1cc(=O)oc2cc(CC(C)C(=O)N3CCC[C@H](S(N)(=O)=O)C3)ccc12 (single isomer, unassigned) [Example 98]
The IC50 of the first is 18-fold lower: 800 nM for the first, 14000 nM for the second. The first is the more potent here.

Going from Cc1ccc2c(-c3ccc(F)cc3Cl)cc(=O)oc2c1 [Example 03, 4-(2-chloro-4-fluorophenyl)-7-methyl-2H-chromen-2-one] to COC[C@@H]1CCN(C(=O)c2ccc3c(-c4ccccc4C)cc(=O)oc3c2)C1 [Example 116, (R)-7-(3-(methoxymethyl)pyrrolidine-1-carbonyl)-4-(o-tolyl)-2H-chromen-2-one], the IC50 rises from 19000 nM to 45000 nM (2.4-fold). The first is the more potent here.

With Cc1ccccc1-c1cc(=O)oc2cc(NCc3nccs3)ccc12 [Example 165, 7-((thiazol-2-ylmethyl)amino)-4-(o-tolyl)-2H-chromen-2-one] the IC50 was 3000 nM.
